The text below walks through data of ChEMBL document CHEMBL5038652, “Structural Rigidification of N-Aryl-pyrroles into Indoles Active against Intracellular and Drug-Resistant Mycobacteria” (ACS Med Chem Lett, 2022).

≈ marks a conversion by molar mass, not a printed value. Some results are limits rather than exact numbers.

In data set [1] the test system is Mycobacterium tuberculosis. The data set can be described thus: Antimycobacterial activity against Mycobacterium tuberculosis H37Rv assessed as reduction in bacterial growth incubated for 7 days by resazurin dye based assay. The conditions noted are these: 168 h, time 7 day. The class given is functional.
Data set [2] can be described thus: Selectivity index, ratio of IC50 for mouse J774.A1 cells to MIC for Mycobacterium tuberculosis H37Rv. The class given is toxicity. As to conditions: read-out: Selectivity Index.
Data set [3] can be described thus: Cytotoxicity against mouse J774.A1 cells assessed as reduction in cell viability after 24 hrs by resazurin dye based assay. The class given is toxicity.
In data set [4] the test system is Mycobacterium tuberculosis. The data set can be described thus: Antimycobacterial activity against Mycobacterium tuberculosis H37Rv infected in mouse J774.A1 cells assessed as log reduction of bacterial growth at 1X MIC measured after 3 days by visual colony counting analysis. The format is functional. The conditions noted are these: time 3 day.
Data set [5] relates to Mycobacterium tuberculosis. The data set can be described thus: Antimycobacterial activity against Mycobacterium tuberculosis H37Rv clinical isolates 1 assessed as reduction in bacterial growth incubated for 7 days by resazurin dye based assay. The class given is functional. As to conditions: 168 h, time 7 day. (In general: The colour change of resazurin is a common sign of viable cells or microbes.)

The subject of data set [6] is Mycobacterium tuberculosis. The data set can be described thus: Antimycobacterial activity against Mycobacterium tuberculosis H37Rv clinical isolates 4 assessed as reduction in bacterial growth incubated for 7 days by resazurin dye based assay. The class given is functional. The conditions noted are these: 168 h, time 7 day.
Data set [7] relates to Mycobacterium tuberculosis. The data set can be described thus: Antimycobacterial activity against Mycobacterium tuberculosis H37Rv clinical isolates 3 assessed as reduction in bacterial growth incubated for 7 days by resazurin dye based assay. The class given is functional. The conditions noted are these: 168 h, time 7 day.
The subject of data set [8] is Mycobacterium tuberculosis. The data set can be described thus: Antimycobacterial activity against Mycobacterium tuberculosis H37Rv clinical isolates 2 assessed as reduction in bacterial growth incubated for 7 days by resazurin dye based assay. The format is functional. As to conditions: 168 h, time 7 day.

In the case of `c1ccc2c(CNC3CCCCCC3)c[nH]c2c1`, the MIC in data set [1] was greater than 25 µg/mL.
Still for that read-out and setting: then `Cc1ccc2[nH]cc(CNC3CCCCCC3)c2c1`, with 24.7 µg/mL (≈ 96.4 µM); and `Clc1ccc2c(CNCc3ccccc3)c[nH]c2c1`, with 22.8 µg/mL (≈ 84.3 µM).
Turning to `Clc1ccc2[nH]cc(CNC3CCCCC3)c2c1`, in data set [1], the MIC stood at 16.3 µg/mL (≈ 62.1 µM).
Consider `Cc1cc(CNC2CCCCC2)c(C)n1-c1ccc(Cl)cc1`, for which the MIC in data set [1] turned out to be 0.2 µg/mL (≈ 0.631 µM).
Take `Cn1cc(CNC2CCCCCCC2)c2ccc(Cl)cc21`: the minimal inhibitory concentration (MIC) in data set [1] was determined as 23.2 µg/mL (≈ 76.3 µM).
Same read-out and setting: then `Cn1cc(CNC2CCCCC2)c2ccc(Cl)cc21`, with greater than 25 µg/mL.
Turning to `c1ccc2c(CNC3CCCCCCC3)c[nH]c2c1`, the minimum inhibitory concentration (MIC) in data set [1] is greater than 25 µg/mL.
Turning to `Cn1cc(CNCC2CCCCC2)c2ccc(Cl)cc21`, the MIC in data set [1] stood at 19.1 µg/mL (≈ 65.6 µM).
With `Cn1cc(CNC2C3CC4CC(C3)CC2C4)c2ccc(Cl)cc21` (stereo not given), in data set [1], the minimal inhibitory concentration (MIC) was 10.9 µg/mL (≈ 33.2 µM). Moreover, the selectivity ratio in data set [2] came to 1.48. The concentration for half-maximal inhibition (IC50) at 24 h in data set [3] amounted to 16.2 µg/mL (≈ 49.2 µM).
Regarding `COc1c(N2C[C@@H]3CCCN[C@@H]3C2)c(F)cc2c(=O)c(C(=O)O)cn(C3CC3)c12` [MOXIFLOXACIN], in data set [4], the Activity is 0.11 log10CFU.
With `CC(C)n1cc(CNC2CCCCCC2)c2ccc(Cl)cc21`, in data set [1], the minimum inhibitory concentration (MIC) came out at 16.3 µg/mL (≈ 51.2 µM).
Turning to `Clc1ccc2c(CNC3CCCCC3)c[nH]c2c1`, in data set [1], the minimum inhibitory concentration (MIC) was greater than 25 µg/mL.
`CO[C@H]1/C=C/O[C@@]2(C)Oc3c(C)c(O)c4c(O)c(c(/C=N/N5CCN(C)CC5)c(O)c4c3C2=O)NC(=O)/C(C)=C\C=C\[C@H](C)[C@H](O)[C@@H](C)[C@@H](O)[C@@H](C)[C@H](OC(C)=O)[C@@H]1C` [RIFAMPIN]: the minimum inhibitory concentration (MIC) in data set [5] is greater than 25 µg/mL; in data set [6], less than 0.1 µg/mL; in data set [7] it was greater than 25 µg/mL; in data set [8], 0.65 µg/mL (≈ 0.79 µM).
In the case of `CC(C)n1cc(CNCC2CCCCC2)c2ccc(Cl)cc21`, the MIC in data set [1] amounted to 6.09 µg/mL (≈ 19.1 µM). Besides, in data set [2], the selectivity ratio turned out to be 2.39. In addition, in data set [3], the IC50 at 24 h turned out to be 14.6 µg/mL (≈ 45.7 µM).
Regarding `Cc1ccc2[nH]cc(CNC3CCCCC3)c2c1`, in data set [1], the MIC was greater than 25 µg/mL.
As to `Cn1cc(CNCc2ccccc2)c2ccc(Cl)cc21`, the MIC in data set [1] was greater than 25 µg/mL.
For the molecule `Clc1ccc2c(CNC3CCCCCC3)c[nH]c2c1`, the MIC in data set [1] was 17.1 µg/mL (≈ 61.9 µM).
As for `NNC(=O)c1ccncc1` [ISONIAZID], the MIC was greater than 25 µg/mL in data set [5], 0.25 µg/mL (≈ 1.82 µM) in data set [6], greater than 25 µg/mL in data set [7] and greater than 25 µg/mL in data set [8].
Turning to `CC(C)n1cc(CNC2CCCCCCC2)c2ccc(Cl)cc21`, the minimum inhibitory concentration (MIC) in data set [1] amounted to 14 µg/mL (≈ 42.1 µM).
For `Clc1ccc2c(CNCC3CCCCC3)cn(C3CCCCCCC3)c2c1`, the minimal inhibitory concentration (MIC) in data set [1] was determined as 1.56 µg/mL (≈ 4.03 µM).
Consider `NCC[C@H](O)C(=O)N[C@@H]1C[C@H](N)[C@@H](O[C@H]2O[C@H](CN)[C@@H](O)[C@H](O)[C@H]2O)[C@H](O)[C@H]1O[C@H]1O[C@H](CO)[C@@H](O)[C@H](N)[C@H]1O` [AMIKACIN], for which the minimum inhibitory concentration (MIC) in data set [5] is 0.32 µg/mL (≈ 0.546 µM); in data set [6] it was 0.14 µg/mL (≈ 0.239 µM); in data set [7], greater than 25 µg/mL; in data set [8], 23.1 µg/mL (≈ 39.5 µM).
On to `Cc1cc(CNCC2CCCCC2)c(C)n1-c1ccc(Cl)cc1`, for which the minimal inhibitory concentration (MIC) in data set [1] amounted to 0.3 µg/mL (≈ 0.907 µM).
As to `Clc1ccc2c(CNCC3CCCCC3)c[nH]c2c1`, the MIC in data set [1] worked out at 24.2 µg/mL (≈ 87.4 µM).
On to `Clc1ccc2c(CNC3C4CC5CC(C4)CC3C5)c[nH]c2c1` (stereo not given), for which the minimal inhibitory concentration (MIC) in data set [1] amounted to 6.07 µg/mL (≈ 19.3 µM). In addition, the selectivity ratio in data set [2] was 1.24. For the same molecule, the IC50 at 24 h in data set [3] came to 7.51 µg/mL (≈ 23.9 µM).
As to `Clc1ccc2c(CNC3CCCCCCC3)c[nH]c2c1`, the minimum inhibitory concentration (MIC) in data set [1] was greater than 25 µg/mL.
For `c1ccc2c(CNCC3CCCCC3)c[nH]c2c1`, the minimal inhibitory concentration (MIC) in data set [1] was greater than 25 µg/mL.
Still for that read-out and setting: then `Clc1ccc2c(CNCc3ccccc3)cn(C3CCCCCCC3)c2c1`, with 19.7 µg/mL (≈ 51.8 µM); and `CC(C)n1cc(CNC2CCCCC2)c2ccc(Cl)cc21`, with 23.9 µg/mL (≈ 78.3 µM); and `CC(C)=CCC/C=C(\C)Cn1cc(CNC2CCCCCC2)c2ccc(Cl)cc21`, with 2.75 µg/mL (≈ 6.66 µM).

Broadly, the MIC is the lowest concentration that inhibits growth of the organism. For orientation: IC50 means the concentration at which inhibition is half-maximal.
